Where a name gives a salt, the structure may show the parent alone. Active and inactive are the calls of the source. The rule behind the calls is not given here.
Assays:
K562 [1] = assay: Antiproliferative activity against human K562 cells assessed as inhibition of cell growth; assay type: functional, cell-based
MDA-MB-231 = assay: Antiproliferative activity against human MDA-MB-231 cells assessed as inhibition of cell growth; assay type: functional, cell-based
A549 = assay: Antiproliferative activity against human A549 cells assessed as inhibition of cell growth; assay type: functional, cell-based
HeLa = assay: Antiproliferative activity against human HeLa cells assessed as inhibition of cell growth; assay type: functional, cell-based
[2] = Cytotoxicity against human L02 cells assessed as cell viability at 2 ug/ml relative to control; assay type: toxicity, cell-based; conditions: at 2 µg/mL, read-out: Activity
K562 [3] = assay: Induction of cell cycle arrest in human K562 cells assessed as accumulation of cells at G1 phase at 10 uM by flow cytometry analysis (reference value: 73.3%); assay type: functional
K562 [4] = assay: Induction of cell cycle arrest in human K562 cells assessed as accumulation of cells at G2 phase at 10 uM by flow cytometry analysis (reference value: 5.38%); assay type: functional
K562 [5] = assay: Induction of cell cycle arrest in human K562 cells assessed as accumulation of cells at S phase at 10 uM by flow cytometry analysis (reference value: 21.32%); assay type: functional
K562 [6] = assay: Induction of apoptosis in human K562 cells assessed as viable cells at 10 uM by AnnexinV-FITC/propidium iodide staining based flow cytometric analysis (reference value: 86.4%); assay type: functional; conditions: read-out: Activity
K562 [7] = assay: Induction of apoptosis in human K562 cells assessed as early apoptotic cells at 10 uM by AnnexinV-FITC/propidium iodide staining based flow cytometric analysis (reference value: 2.56%); assay type: functional
K562 [8] = assay: Induction of apoptosis in human K562 cells assessed as late apoptotic cells at 10 uM by AnnexinV-FITC/propidium iodide staining based flow cytometric analysis (reference value: 5.1%); assay type: functional
K562 [9] = assay: Induction of apoptosis in human K562 cells assessed as dead cells at 10 uM by AnnexinV-FITC/propidium iodide staining based flow cytometric analysis (reference value: 5.94%); assay type: functional
K562 [10] = assay: Induction of apoptosis in human K562 cells assessed as increase in FADD level at 100 uM measured after 48 hrs by human apoptosis array analysis; assay type: functional, cell-based
K562 [11] = assay: Induction of apoptosis in human K562 cells assessed as increase in pro-caspase 3 level at 100 uM measured after 48 hrs by human apoptosis array analysis; assay type: functional, cell-based
K562 [12] = assay: Induction of apoptosis in human K562 cells assessed as increase in cleaved caspase-3 level at 100 uM measured after 48 hrs by human apoptosis array analysis; assay type: functional, cell-based
K562 [13] = assay: Induction of apoptosis in human K562 cells assessed as increase in HTRA2/omi level at 100 uM measured after 48 hrs by human apoptosis array analysis; assay type: functional, cell-based
K562 [14] = assay: Induction of apoptosis in human K562 cells assessed as increase in SMAC/Diablo level at 100 uM measured after 48 hrs by human apoptosis array analysis; assay type: functional, cell-based
K562 [15] = assay: Induction of apoptosis in human K562 cells assessed as increase in Bax/Bcl-2 ratio at 100 uM measured after 48 hrs by human apoptosis array analysis; assay type: functional, cell-based

IC50 (K562 [1]) [µM]	IC50 (MDA-MB-231) [µM]	IC50 (A549) [µM]	IC50 (HeLa) [µM]	Structure (SMILES)	further results
3.27	7.57	6.96	7.06	O=C1C=CC(OCC(F)(F)F)N1c1ccc(Br)cc1 (stereo unspecified)	–
13.1	2.3	8.39	36.2	O=C1C=CC(OCC(F)(F)F)N1c1ccc(C(F)(F)F)cc1 (stereo unspecified)	–
10.5	> 100	> 100	6.61	CC(C)NC1CC(=O)N(c2ccc(F)c(Cl)c2)C1OCC(F)(F)F (stereo unspecified)	viability at 2 ug/ml [2]: 102%
4.47	7.84	8.09	6.51	CCc1ccc(N2C(=O)C=CC2OCC(F)(F)F)cc1 (stereo unspecified)	–
6.32	3.44	7.69	3.11	O=C1C=CC(OCC(F)(F)F)N1c1ccc(F)c(Cl)c1 (stereo unspecified)	viability at 2 ug/ml [2]: 58%
24.6	15.3	23.4	> 100	O=C1C=CC(OCC(F)(F)F)N1c1ccccc1 (stereo unspecified)	–
4.48	2.41	4.3	1.89	O=C1C=CC(OC(C(F)(F)F)C(F)(F)F)N1c1ccc(Cl)cc1 (stereo unspecified)	–
0.34	–	0.15	1.07	COc1cccc2c1C(=O)c1c(O)c3c(c(O)c1C2=O)C[C@@](O)(C(=O)CO)C[C@@H]3O[C@H]1C[C@H](N)[C@H](O)[C@H](C)O1 [DOXORUBICIN HYDROCHLORIDE]	–
7.14	15.8	13.7	9.38	Cc1ccc(N2C(=O)C=CC2OCC(F)(F)F)cc1 (stereo unspecified)	–
12	20.6	44.9	19.2	O=C1C=CC(OCC(F)(F)F)N1c1ccccc1F (stereo unspecified)	–
14.7	12.1	8.17	5.7	COC(=O)c1ccc(N2C(=O)C=CC2OCC(F)(F)F)cc1 (stereo unspecified)	–

The next lines start with the compound.

Structure (SMILES)	IC50 (K562 [1]) [µM]	IC50 (MDA-MB-231) [µM]	IC50 (A549) [µM]	IC50 (HeLa) [µM]	further results
CC(C)(C)c1ccc(N2C(=O)C=CC2OCC(F)(F)F)cc1 (stereo unspecified)	0.07	1.86	8.5	18.1	viability at 2 ug/ml [2]: 81%; Activity (K562 [3]): 18.84%; Activity (K562 [4]): 80.18%; Activity (K562 [5]): 0.98%; viability at 10 µM (K562 [6]): 41.5%; Activity (K562 [7]): 33.3%; Activity (K562 [8]): 22.8%; Activity (K562 [9]): 2.4%; Activity (K562 [10]): Active; Activity (K562 [11]): Active; Activity (K562 [12]): Active; Activity (K562 [13]): Active; Activity (K562 [14]): Active; Activity (K562 [15]): Active
O=C1c2c(O)ccc(O)c2C(=O)c2c(NCCNCCO)ccc(NCCNCCO)c21 [MITOXANTRONE]	0.14	–	0.07	0.04	–
O=C1C=CC(OCC(F)(F)F)N1c1cc(F)cc(F)c1 (stereo unspecified)	0.52	7.84	5	8.46	viability at 2 ug/ml [2]: 66%; Activity (K562 [3]): 15.21%; Activity (K562 [4]): 54.21%; Activity (K562 [5]): 30.58%; viability at 10 µM (K562 [6]): 50%; Activity (K562 [7]): 25.5%; Activity (K562 [8]): 22.3%; Activity (K562 [9]): 2.26%
O=C1C=CC(OCC(F)(F)F)N1c1ccc(Cl)cc1F (stereo unspecified)	6.21	6.1	6.63	8.32	–
O=C1C=CC(OCC(F)(F)F)N1c1ccc([N+](=O)[O-])cc1 (stereo unspecified)	1.53	2.83	3.27	2.38	–
CC(C)c1ccc(N2C(=O)C=CC2OCC(F)(F)F)cc1 (stereo unspecified)	6.62	6.64	9.57	5.8	–
O=C1C=CC(OCC(F)(F)F)N1c1cc(Cl)cc(Cl)c1 (stereo unspecified)	1.64	2.43	1.63	5.92	–
COc1ccc(/C=C\c2cc(OC)c(OC)c(OC)c2)cc1O [COMBRETASTATIN A4]	–	–	–	–	Activity (K562 [3]): 21.92%; Activity (K562 [4]): 47.61%; Activity (K562 [5]): 30.46%; viability at 10 µM (K562 [6]): 32.7%; Activity (K562 [7]): 43.7%; Activity (K562 [8]): 22.2%; Activity (K562 [9]): 1.36%

Source: ChEMBL document CHEMBL5104159, “Synthesis and antitumor activity of a series of novel N-aryl-5-(2,2,2-trifluoroethoxy)-1,5-dihydro-2H-pyrrol-2-ones derivatives” (Bioorg Med Chem Lett, 2022)
